Numbers after ± are expanded uncertainties.
Experiments:
[1] = Crystal; DTA
[2] = Molar enthalpy of transition or fusion; details: Crystal; DSC

In the case of `C[C@H]([C@@H](O)c1ccccc1)N(C)C` [(+)-N-methylephedrine], the Normal melting temperature [1] is reported as 86.60 ± 2 °C and the “Molar enthalpy of transition or fusion” value [2] is reported as 7.3 ± 0.208 kcal/mol.
